Measured values taken from ChEMBL document CHEMBL1949541, “Discovery of 7-arylsulfonyl-1,2,3,4, 4a,9a-hexahydro-benzo[4,5]furo[2,3-c]pyridines: identification of a potent and selective 5-HT₆ receptor antagonist showing activity in rat social recognition test” (Bioorg Med Chem Lett, 2012).

Legend:
[1] = system: Rattus norvegicus; assay: AUC in po dosed rat; format: ADME, organism-based, Plasma; details: in vivo
[2] = (§1) Oral bioavailability in rat; format: ADME, organism-based; details: in vivo
[3] = molecular target: T1, 5-hydroxytryptamine receptor 6 (Homo sapiens, UniProt P50406); assay: Displacement of [3H]LSD from human recombinant 5HT6 receptor
[4] = molecular target: 5-hydroxytryptamine receptor 6 (Rattus norvegicus, UniProt P31388); assay: Displacement of [3H]LSD from rat recombinant 5HT6 receptor
[5] = molecular target: T1, 5-hydroxytryptamine receptor 6; assay: Antagonist activity at human 5HT6 receptor expressed in human astrocytoma cells assessed as inhibition of cAMP production; format: functional, cell-based
[6] = system: Rattus norvegicus; assay: as §1; format: ADME, organism-based; details: in vivo

T1 sequence (P50406 whole entry): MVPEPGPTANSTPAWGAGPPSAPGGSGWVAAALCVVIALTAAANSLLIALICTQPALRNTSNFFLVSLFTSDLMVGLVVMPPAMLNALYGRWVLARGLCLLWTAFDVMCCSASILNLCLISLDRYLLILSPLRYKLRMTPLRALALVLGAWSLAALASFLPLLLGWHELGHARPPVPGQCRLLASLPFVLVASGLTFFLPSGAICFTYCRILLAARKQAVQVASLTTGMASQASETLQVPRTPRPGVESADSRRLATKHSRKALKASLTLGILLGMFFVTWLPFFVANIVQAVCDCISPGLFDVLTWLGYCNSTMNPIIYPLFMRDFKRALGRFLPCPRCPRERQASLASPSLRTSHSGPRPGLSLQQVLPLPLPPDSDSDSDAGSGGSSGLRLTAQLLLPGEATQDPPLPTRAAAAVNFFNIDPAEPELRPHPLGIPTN
Chain of 5-hydroxytryptamine receptor 6 (Rattus norvegicus, UniProt P31388) (P31388 whole entry): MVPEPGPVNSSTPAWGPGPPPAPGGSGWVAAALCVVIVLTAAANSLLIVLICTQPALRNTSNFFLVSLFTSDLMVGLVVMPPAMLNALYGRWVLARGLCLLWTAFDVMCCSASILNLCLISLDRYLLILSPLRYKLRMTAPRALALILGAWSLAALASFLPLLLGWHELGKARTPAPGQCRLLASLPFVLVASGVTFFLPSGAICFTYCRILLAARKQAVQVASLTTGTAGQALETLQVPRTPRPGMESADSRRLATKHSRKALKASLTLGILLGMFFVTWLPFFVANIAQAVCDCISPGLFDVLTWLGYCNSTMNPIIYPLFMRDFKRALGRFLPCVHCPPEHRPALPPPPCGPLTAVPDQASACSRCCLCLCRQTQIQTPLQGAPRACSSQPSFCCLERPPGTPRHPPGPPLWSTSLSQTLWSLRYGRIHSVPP

Row | AUC [1] [ng·h/mL] | bioavailability [2] [%] | Ki [3] [nM] | Ki [4] [nM] | IC50 [5] [nM] | F [6] [%] | Compound
1 | 0 | < 1 | 11 | – | – | – | Cl.O=S(=O)(c1cccc(F)c1)c1ccc2c(c1)O[C@H]1CNCC[C@@H]21 (single isomer, unassigned; enantiomer 1)
2 | – | – | 37 | 243 | 227 | – | Cc1cccc(S(=O)(=O)c2ccc3c(c2)O[C@H]2CNCC[C@@H]32)c1 (racemic)
3 | – | – | 28 | 174 | 96 | – | O=S(=O)(c1cc(F)cc(F)c1)c1ccc2c(c1)O[C@H]1CNCC[C@@H]21 (single isomer, unassigned; enantiomer 2)
4 | – | – | 49 | – | – | – | CC(C)Oc1cc(F)cc(S(=O)(=O)c2ccc3c(c2)O[C@H]2CNCC[C@@H]32)c1 (single isomer, unassigned; enantiomer 1)
5 | – | – | 5 | – | 40 | – | O=S(=O)(c1ccc2c(c1)O[C@H]1CNCC[C@@H]21)c1cccc(Cl)c1Cl (single isomer, unassigned; enantiomer 1)
6 | – | – | 166 | 2180 | 1360 | – | O=S(=O)(c1cc(F)cc(F)c1)c1ccc2c(c1)O[C@H]1CNCC[C@@H]21 (single isomer, unassigned; enantiomer 1)
7 | – | – | 11 | 40 | 27 | – | O=S(=O)(c1cccc(Cl)c1)c1ccc2c(c1)O[C@H]1CNCC[C@@H]21 (racemic)
8 | – | – | 15 | 136 | 135 | – | O=S(=O)(c1ccc2c(c1)O[C@H]1CNCC[C@@H]21)c1ccccc1-c1ccccc1 (racemic)
9 | – | – | 2 | – | 6 | – | O=S(=O)(c1ccc2c(c1)O[C@H]1CNCC[C@@H]21)c1cccc(Cl)c1Cl (single isomer, unassigned; enantiomer 2)
10 | – | – | 38 | 206 | 133 | – | O=S(=O)(c1ccc2c(c1)O[C@H]1CNCC[C@@H]21)c1ccccc1Cl (racemic)
11 | – | – | 21 | 52 | 33 | – | O=S(=O)(c1cccc(F)c1)c1ccc2c(c1)O[C@H]1CNCC[C@@H]21 (racemic)
12 | – | – | 32 | 145 | 179 | – | O=S(=O)(c1ccc2c(c1)O[C@H]1CNCC[C@@H]21)c1ccccc1F (racemic)
13 | – | – | 48 | – | 357 | – | O=S(=O)(c1cccc(C(F)(F)F)c1)c1ccc2c(c1)O[C@H]1CNCC[C@@H]21 (racemic)
14 | 310 | – | 31 | – | – | 26 | CC(C)Oc1cccc(S(=O)(=O)c2ccc3c(c2)O[C@H]2CNCC[C@@H]32)c1.Cl (single isomer, unassigned; enantiomer 2)
15 | 637 | – | 17 | – | – | 9 | CC(C)Oc1cccc(S(=O)(=O)c2ccc3c(c2)O[C@H]2CNCC[C@@H]32)c1.Cl (single isomer, unassigned; enantiomer 1)
16 | – | – | 64 | 236 | 245 | – | Cc1ccc(S(=O)(=O)c2ccc3c(c2)O[C@H]2CNCC[C@@H]32)cc1 (racemic)
